# Measured values from patent US10751337B2, “Preservative free ocular compositions and methods for using the same for treating dry eye disease and other eye disorders” (The Board of Trustees of the University of Illinois, priority 2015, dated 2020).
# How the values were obtained:
# [1] = system: Meibomian gland dysfunction (MGD) in patients with chronic ocular Graft-Versus-Host-Disease (oGVHD); assay: Treatment of chronic ocular GVHD patients with Meibomian gland dysfunction, SGA and CGI assessment (Example 2)
# [2] = system: Evaporative dry eye (EDE) attributable to LASIK refractive surgery; details: person after LASIK; eye drops 0.15% in both eyes; most recent follow up
# Excerpt: The patient treated was a person with severe symptoms of ocular discomfort. The patient had undergone LASIK refractive surgery in both eyes. The prior treatment history was that the patient was on doxycycline pills, warm compresses, erythromycin ointment and intermittently on steroid eye drops. […] The patient instilled the eye drops on the surface of the eye and spread the excess eye drops to both eye lid margins.
# [3] = system: Sjogren dry eye syndrome; details: person; 0.15% twice a day in both eyes
# [4] = system: Non-Sjogren dry eye syndrome (Meibomian gland dysfunction); assay: Treatment of a patient with non-Sjogren dry eye syndrome, MGD not due to ocular GVHD (Example 4); details: person, 0.15% twice a day
# [5] = system: mixed dry eye disease (severe tear deficiency Meibomian gland dysfunction (MGD)); details: one patient
# [6] = ocular GVHD patients with MGD, summary statement
smiles,measurement,setting,value
"Brc1c(NC2=NCCN2)ccc2nccnc12 [brimonidine, 5-Bromo-N-(4,5-dihydro-1H-imidazol-2-yl) quinoxalin-6-amine]",patients who did not report any change (SGA),"[1]; 18 patients (n=2), 0.15% twice a day",11%
same,patients who reported improvement (SGA),"[1]; 18 patients (n=6), 0.15% twice a day",33%
same,patients who reported much improvement (SGA),"[1]; 18 patients (n=10), 0.15% twice a day",55%
same,patients with moderate to marked improvements in CGI,"[1]; 18 patients (n=15), 0.15% twice a day",83%
same,patients clinically worsened (CGI),"[1]; 18 patients, 0.15% twice a day",No patients had clinically worsened
same,patients reporting worsening of symptoms or signs (SGA),"[1]; 18 patients, 0.15% twice a day",No patients reported worsening of symptoms or signs
same,tolerability of the eye drops,"[1]; 18 patients, 0.15% twice a day",easily tolerated
same,"Subjective Global Assessment (SGA), mean (±SD)","[1]; 18 patients, five point scale (Much worse to Much improved), 0.15% one drop twice a day, followed 6 months or more",4.4±0.69
same,"Clinical Global Impression (CGI), mean (±SD)","[1]; 18 patients, seven point scale (Marked worsening to Marked improvement), 0.15% twice a day",6.2±0.88
same,patients tested with a beneficial effect,[1]; [6],approximately 90%
same,side effects,[1]; [6],without significant side effects
same,patient-reported improvement of symptoms since starting treatment,[2],90%
same,patient-reported symptoms and redness,[3],improvement in symptoms and redness
same,side effects,[4],No side effects were reported
same,tolerability of the drops,[4],tolerated well
same,patient-reported redness of both eyes,[4]; most recent follow up,reduction in redness of both eyes
same,patient-reported symptoms of dryness and burning,[4]; most recent follow up,reduction in symptoms of dryness and burning
same,conjunctival and eyelid margin redness,"[5]; 0.15% aqueous solution twice a day to eyelash and eyelid margin area, 15 minutes after application",significant reduction
same,patient-reported symptoms of ocular discomfort,"[5]; 0.15% aqueous solution twice a day, after applying",reduced
